The assay has as its target T1, hABHD12 (Homo sapiens, UniProt Q8N2K0).
T1 construct: expressed in transfected cells; host or cells: HEK293 (transient)
T1 sequence (Q8N2K0 1-398): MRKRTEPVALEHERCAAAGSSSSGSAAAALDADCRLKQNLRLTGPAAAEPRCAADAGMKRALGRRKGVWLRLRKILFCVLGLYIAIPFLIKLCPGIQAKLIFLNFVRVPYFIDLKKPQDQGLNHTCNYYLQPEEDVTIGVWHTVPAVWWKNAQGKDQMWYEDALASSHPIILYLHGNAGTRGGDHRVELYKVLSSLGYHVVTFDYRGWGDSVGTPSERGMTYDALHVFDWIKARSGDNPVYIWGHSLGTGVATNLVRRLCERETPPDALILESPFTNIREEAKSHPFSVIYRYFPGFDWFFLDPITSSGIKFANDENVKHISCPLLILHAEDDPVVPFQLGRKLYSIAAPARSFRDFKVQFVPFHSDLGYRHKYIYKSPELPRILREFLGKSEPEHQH
In words: Fluorescent glycerol assay of 1-AG hydrolysis in hABHD12-HEK293 lysates. The class given is biochemical. The following applies: for remaining activity at 10 µM: read-out: Remaining activity at 10 µM % ± s.e.m.; for inhibition at 10 µM: read-out: inhibition of hABHD12 at 10 µM; for Emax: read-out: max inhibition (converted). Here is the method:
Glycerol liberated from 1-AG hydrolysis was determined with a sensitive fluorescent assay using lysates of HEK293 cells with transient overexpression of hABHD12, hABHD6 or hMAGL, essentially as previously described. […] Fluorescence (λex 530; λem 590 nm) was monitored using a Tecan Infinite M200 plate reader (Tecan Group Ltd., Männedorf, Switzerland). Inhibitory activities of selected compounds towards FAAH were determined using membranes of hFAAH overexpressing COS-7 cells, essentially as previously described. The final incubation volume (100 µL) contained 1 µg of protein and the substrate concentration was 20 µM (10 nM of ^3H-anandamide having specific activity of 60 Ci/mmol and concentration of 1 mCi/mL).

Where [1] appears, read: hABHD12-HEK293 lysates, 10 µM, NI = no inhibition.
The mark [2] stands for this setting: hABHD12-HEK293 lysates, three independent experiments, read-out: -logIC50±s.e.m. (converted).
Where [3] appears, read: hABHD12-HEK293 lysates, read-out: IC50.

Each structure is given as a SMILES string. “Also recorded” adds a separate entry of the source. Where two headings read alike, the source gives them in different places.

Usually remaining activity stands for what remains of the control signal, in per cent. Consider `C=C(C)[C@@H]1CC[C@]2(CO)CC[C@]3(C)[C@H](CC[C@@H]4[C@@]5(C)CC[C@H](O)C(C)(C)[C@@H]5CC[C@]43C)[C@@H]12` [Compound 2, Betulin, reference compound], for which the remaining activity at 10 µM under setting [1] was about 75%.
`C=C(C)[C@@H]1CC[C@]2(C)CC[C@]3(C)[C@H](CC[C@@H]4[C@@]5(C)CC[C@H](O)C(C)(C)[C@@H]5CC[C@]43C)[C@@H]12` [Compound 3, Lupeol, reference compound]: the remaining activity at 10 µM under setting [1] is over 100%.
Regarding `C[C@H]1[C@H](C)CC[C@]2(C(=O)O)CC[C@]3(C)C(=CC[C@@H]4[C@@]5(C)C[C@@H](O)[C@H](O)[C@@](C)(CO)[C@@H]5CC[C@]43C)[C@H]12` [Compound 5, Asiatic acid, reference compound], the “hABHD12 inhibitory activity (in words)” value is listed as “did not inhibit hABHD12; also recorded: completely devoid of activity”. Moreover, the remaining activity at 10 µM under setting [1] is over 100%.
As for `C[C@H]1[C@H](C)CC[C@]2(C)CC[C@]3(C)C(=CC[C@@H]4[C@@]5(C)CC[C@H](O)C(C)(C)[C@@H]5CC[C@]43C)[C@H]12` [Compound 6, α-Amyrin, reference compound], the remaining activity at 10 µM under setting [1] is over 100%.
Take `CC1(C)CC[C@]2(C(=O)O)CC[C@]3(C)C(=CC[C@@H]4[C@@]5(C)CC[C@H](O)C(C)(C)[C@@H]5CC[C@]43C)[C@@H]2C1` [Compound 7, Oleanolic acid, reference compound]: under setting [1], the remaining activity at 10 µM is about 20%.
Take `CC1(C)CC[C@]2(C(=O)O)CC[C@]3(C)C(=CC[C@@H]4[C@@]5(C)CC[C@H](O)[C@@](C)(CO)[C@@H]5CC[C@]43C)[C@@H]2C1` [Compound 9, Hederagenin, reference compound]: the “hABHD12 inhibitory activity (in words)” value is “did not inhibit hABHD12”. Moreover, the remaining activity at 10 µM under setting [1] was determined as 78 ± 3%.
For `CC1(C)CC[C@]2(C)CC[C@]3(C)C(=CC[C@@H]4[C@@]5(C)CC[C@H](O)C(C)(C)[C@@H]5CC[C@]43C)[C@@H]2C1` [Compound 10, β-Amyrin, reference compound], under setting [1], the remaining activity at 10 µM was over 100%.
In the case of `COC(=O)[C@]12CCC(C)(C)C[C@H]1[C@H]1C(=O)C=C3[C@@]4(C)C=C(C#N)C(=O)C(C)(C)[C@@H]4CC[C@@]3(C)[C@]1(C)CC2` [Compound 13, CDDO methyl ester, reference compound], under setting [1], the remaining activity at 10 µM is over 100%.
As for `CC1=C(O)C(=O)C=C2C1=CC=C1[C@@]2(C)CC[C@@]2(C)[C@@H]3C[C@](C)(C(=O)O)CC[C@]3(C)CC[C@]12C` [Compound 14, Celastrol, reference compound], under setting [1], the remaining activity at 10 µM was over 100%.
Take `COC(=O)[C@]1(C)CC[C@]2(C)CC[C@]3(C)C4=CC=C5C(=CC(=O)C(O)=C5C)[C@]4(C)CC[C@@]3(C)[C@@H]2C1` [Compound 15, Pristimerin, reference compound]: the remaining activity at 10 µM is over 100%.
For orientation: inhibition means the percentage by which the read-out fell short of the control. On to `C=C(C)[C@@H]1CC[C@]2(C=O)CC[C@]3(C)[C@H](CC[C@@H]4[C@@]5(C)CC[C@H](O)C(C)(C)[C@@H]5CC[C@]43C)[C@@H]12` [Compound 16], for which the inhibition at 10 µM was about 30%. The remaining activity at 10 µM under setting [1] was determined as 71 ± 0.8%.
`C=C(C)[C@@H]1CC[C@]2(C(=O)NCCC)CC[C@]3(C)[C@H](CC[C@@H]4[C@@]5(C)CCC(=O)C(C)(C)[C@@H]5CC[C@]43C)[C@@H]12` [Compound 20]: the remaining activity at 10 µM under setting [1] amounted to 84 ± 1.5%.
For the molecule `C=C(C)[C@@H]1CC[C@]2(C(=O)N3CCCC3)CC[C@]3(C)[C@H](CC[C@@H]4[C@@]5(C)CCC(=O)C(C)(C)[C@@H]5CC[C@]43C)[C@@H]12` [Compound 21], under setting [1], the remaining activity at 10 µM came out at 80 ± 0.3%.
Take `C=C(C)[C@@H]1CC[C@]2(COC(=O)/C=C/c3ccccc3)CC[C@]3(C)[C@H](CC[C@@H]4[C@@]5(C)CC[C@H](O)C(C)(C)[C@@H]5CC[C@]43C)[C@@H]12` [Compound 26]: under setting [1], the remaining activity at 10 µM is over 100%.
Take `C=C(C)[C@@H]1CC[C@]2(COC(=O)CCC(C)=O)CC[C@]3(C)[C@H](CC[C@@H]4[C@@]5(C)CC[C@H](O)C(C)(C)[C@@H]5CC[C@]43C)[C@@H]12` [Compound 27]: the remaining activity at 10 µM under setting [1] came out at 85 ± 0.5%.
As for `C=C(C)[C@@H]1CC[C@]2(COC(=O)CCC(C)=O)CC[C@]3(C)[C@H](CC[C@@H]4[C@@]5(C)CC[C@H](OC(=O)CCC(C)=O)C(C)(C)[C@@H]5CC[C@]43C)[C@@H]12` [Compound 28], under setting [1], the remaining activity at 10 µM is over 100%.
In the case of `C=C(C)[C@@H]1CC[C@]2(COC3CCCCO3)CC[C@]3(C)[C@H](CC[C@@H]4[C@@]5(C)CC[C@H](O)C(C)(C)[C@@H]5CC[C@]43C)[C@@H]12` (stereo partly shown) [Compound 29], the remaining activity at 10 µM under setting [1] was over 100%.
`C=C(C)[C@@H]1CC[C@]2(CO)CC[C@]3(C)[C@H](CC[C@@H]4[C@@]5(C)CC[C@H](OC(C)=O)C(C)(C)[C@@H]5CC[C@]43C)[C@@H]12` [Compound 30]: the remaining activity at 10 µM under setting [1] was over 100%.
For the molecule `C=C(C)[C@@H]1CC[C@]2(C(=O)O)CC[C@]3(C)[C@H](CC[C@@H]4[C@@]5(C)CC(O)C(O)C(C)(C)[C@@H]5CC[C@]43C)[C@@H]12` (stereo partly drawn) [Compound 32, 2β,3β-Dihydroxylup-20(29)-en-28-oic acid], under setting [2], the IC50 is 3.72 µM. Further, the Emax (hABHD12-HEK293 lysates) was 100%.
Taken in the same sequence, the figures for `C=C(C)[C@@H]1CC[C@]2(C(=O)O)CC[C@]3(C)[C@H](CC[C@@H]4[C@@]5(C)Cc6c[nH]nc6C(C)(C)[C@@H]5CC[C@]43C)[C@@H]12` [Compound 37] were 1.45 µM and 100%.
For the molecule `C=C(C)[C@@H]1CC[C@]2(C=O)CC[C@]3(C)[C@H](CC[C@@H]4[C@@]5(C)Cc6cnoc6C(C)(C)[C@@H]5CC[C@]43C)[C@@H]12` [Compound 38], the “hABHD12 inhibitory activity (in words)” value was “poor inhibitory activity; also recorded: complete loss of the inhibitory activity”. Also, the remaining activity at 10 µM under setting [1] was found to be 84 ± 1.6%.
Turning to `CC(C)[C@@]12CC[C@]3(CO)CC[C@]4(C)C(=C31)C(C[C@@H]1[C@@]3(C)CC[C@H](O)C(C)(C)[C@@H]3CC[C@]14C)n1c(=O)n(-c3ccccc3)c(=O)n12` (stereo partly shown) [Compound 39], the remaining activity at 10 µM under setting [1] came to 86 ± 0.4%.
In the case of `C=C(C)[C@@H]1CC[C@]2(C(=O)O)CC[C@]3(C)[C@H](CC[C@@H]4[C@@]5(C)Cc6ncccc6C(C)(C)[C@@H]5CC[C@]43C)[C@@H]12` [Compound 40, Lupa-2,20(29)-dieno[2,3-b]pyridin-28-oic acid], the inhibition at 10 µM was determined as 34%. Moreover, the remaining activity at 10 µM under setting [1] is 66 ± 1.1%.
Consider `C=C(C)[C@@H]1CC[C@]2(C(=O)O)CC[C@]3(C)[C@H](CC[C@@H]4[C@@]5(C)Cc6cccnc6C(C)(C)[C@@H]5CC[C@]43C)[C@@H]12` [Compound 41], for which the IC50 is, setting by setting: under setting [2], 6.61 µM; under setting [3], 6.7 µM. For the same molecule, the Emax (hABHD12-HEK293 lysates) is 80%.
Consider `C=C(C)[C@@H]1CC[C@]2(C(=O)O)CC[C@]3(C)[C@H](CC[C@@H]4[C@@]5(C)Cc6nccnc6C(C)(C)[C@@H]5CC[C@]43C)[C@@H]12` [Compound 42], for which the IC50 is 3.55 µM under setting [2] and 3.6 µM under setting [3]. Besides, the Emax (hABHD12-HEK293 lysates) was 56%.
Regarding `C=C(C)[C@@H]1CC[C@]2(C(N)=O)CC[C@]3(C)[C@H](CC[C@@H]4[C@@]5(C)Cc6nccnc6C(C)(C)[C@@H]5CC[C@]43C)[C@@H]12` [Compound 43], the remaining activity at 10 µM under setting [1] came to 69 ± 0.8%.

The values above are taken from paper PMC4045134, “Discovery of Triterpenoids as Reversible Inhibitors of α/β-hydrolase Domain Containing 12 (ABHD12)” (PLoS ONE, 2014).
